In PubChem BioAssay AID623945 (Vanderbilt Specialized Chemistry Center, 2012) one finds EC50 data, which are given here for ten compounds.

For orientation: EC50 means the concentration at which the effect is half-maximal.

Chain of Muscarinic acetylcholine receptor M4 (Rattus norvegicus) (P08485 whole entry, looked up): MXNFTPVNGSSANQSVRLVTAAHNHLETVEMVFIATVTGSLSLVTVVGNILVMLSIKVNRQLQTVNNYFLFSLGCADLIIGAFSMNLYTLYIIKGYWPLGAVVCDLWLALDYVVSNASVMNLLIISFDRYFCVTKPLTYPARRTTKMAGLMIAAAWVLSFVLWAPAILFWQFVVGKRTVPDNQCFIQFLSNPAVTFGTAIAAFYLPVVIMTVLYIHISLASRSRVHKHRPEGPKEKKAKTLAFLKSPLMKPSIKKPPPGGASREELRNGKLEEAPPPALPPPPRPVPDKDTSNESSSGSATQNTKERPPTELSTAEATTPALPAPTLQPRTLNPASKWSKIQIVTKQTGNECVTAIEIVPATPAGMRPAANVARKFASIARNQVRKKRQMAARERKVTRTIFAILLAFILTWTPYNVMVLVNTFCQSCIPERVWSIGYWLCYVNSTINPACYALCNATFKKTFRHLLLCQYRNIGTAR

The test concerns the target Muscarinic acetylcholine receptor M4 (Rattus norvegicus) (UniProt P08485). The test is described as follows: potentiation of rat M4 acetylcholine response – CHO cells, Gqi5 chimera, calcium, ACh EC20, selectivity assay for human M4 PAM optimization, SAR follow-up (AID 623945). The following applies: CHO rM4/Gqi5 calcium fluorescence.
As to `Cc1nc2sc(C(=O)NCc3cccnc3)c(N)c2c(C)c1Cl`, the EC50 was 272 nM.
With `Cc1nc2sc(C(=O)NCc3cccc(F)c3F)c(N)c2c(C)c1Cl` the figure was 114 nM.
With `Cc1nc2sc(C(=O)NCc3ccncn3)c(N)c2c(C)c1Cl` the figure was 527 nM; with `Cc1nc2sc(C(=O)NCc3ccc4c(c3)OCO4)c(N)c2c(C)c1Cl`, 62 nM; with `Cc1nc2sc(C(=O)NCc3ccccc3)c(N)c2c(C)c1Cl`, 126 nM.
As to `Cc1nc2sc(C(=O)NCCc3ccncc3)c(N)c2c(C)c1Cl`, the EC50 was 229 nM.
The same measure for `Cc1nc2sc(C(=O)NCc3ccncc3)c(N)c2c(C)c1Cl`: 173 nM; for `Cc1nc2sc(C(=O)NCc3nccs3)c(N)c2c(C)c1Cl`: 187 nM; for `Cc1nc2sc(C(=O)NC3CC3)c(N)c2c(C)c1Cl`: 151 nM.
The same measure for `COc1ccc(C)c2sc(NC(=O)c3ccncc3)nc12`: 3210 nM.
